Laboratory results from patent publication US20240150333A1, “TAF1 INHIBITORS” (H. LEE MOFFITT CANCER CENTER AND RESEARCH INSTITUTE, INC., priority 2020, published 2024).
“Also recorded” adds a separate entry of the source.

Assays:
[1] = molecular target: T1, TAF1-T (TAF1 tandem bromodomain, BD1 and BD2) (Homo sapiens, UniProt P21675); assay: Differential scanning fluorimetry (DSF) thermal shift; assay type: binding
T1 construct: tandem bromodomain (residues 1373-1635); His6 (TEV-cleavable) (cleaved yes); host or cells: E. coli BL21 (DE3)
T1 sequence (P21675 1373-1635 isoform P21675-1): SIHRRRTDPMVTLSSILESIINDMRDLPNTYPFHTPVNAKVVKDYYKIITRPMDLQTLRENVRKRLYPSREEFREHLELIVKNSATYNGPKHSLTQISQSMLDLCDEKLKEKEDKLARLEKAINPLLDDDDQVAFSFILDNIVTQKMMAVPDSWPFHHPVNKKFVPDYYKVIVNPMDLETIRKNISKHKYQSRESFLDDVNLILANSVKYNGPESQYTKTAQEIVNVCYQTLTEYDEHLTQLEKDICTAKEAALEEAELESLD

TAF1-2 (TAF1 BD2) [2] = molecular target: T2, TAF1-2 (TAF1 BD2) (Homo sapiens, UniProt P21675); assay: as above; assay type: binding
T2 construct: BD2 (residues 1501-1635); His6 (TEV-cleavable) (cleaved yes); host or cells: E. coli BL21 (DE3)
T2 sequence (P21675 1501-1635 isoform P21675-1): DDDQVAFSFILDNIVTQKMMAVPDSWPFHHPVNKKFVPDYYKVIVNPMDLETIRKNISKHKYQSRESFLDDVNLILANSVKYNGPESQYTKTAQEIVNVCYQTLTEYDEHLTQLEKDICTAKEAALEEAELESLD

[3] = molecular target: T3, TAF1-T (TAF1 tandem bromodomain) (Homo sapiens, UniProt P21675); assay: Isothermal titration calorimetry (ITC); assay type: binding; details: Table 3; 298.15 K
T3 construct: tandem bromodomain (residues 1373-1635); His6 (TEV-cleavable) (cleaved yes); host or cells: E. coli BL21 (DE3)
T3 sequence (P21675 1373-1635 isoform P21675-1): T1 sequence (P21675 1373-1635 isoform P21675-1)

TAF1-2 (TAF1 BD2) [4] = molecular target: T2, TAF1-2 (TAF1 BD2); assay: Isothermal titration calorimetry (ITC); assay type: binding; details: Table 3; 288.15 K
panel of 32 bromodomains = assay: Profiling across a panel of 32 bromodomains (DiscoveRx), overall statement; assay type: binding, human; details: 20 μM concentration
A549 lung cancer cells = assay: p53 pathway markers by western blot in A549 cells; assay type: cell-based, human
BAZ2A = molecular target: T4, BAZ2A (Homo sapiens, UniProt Q9UIF9); assay: Bromoscan selectivity profiling (DiscoveRx); assay type: binding; details: at 20,000 nM
T4 construct: 32 bromodomains (by DiscoveRx); purchased DiscoveRx (BromoScan service)
Protocol: (§1) qPCR-based BRD binding assay. Another method for the determination of dissociation constants of BRD-ligand complexes is offered by DiscoveRx Corp. The assay is based on competition between test compound and immobilized high-affinity ligand for binding to the KAc site of BRDs. The amount of TAF1 remaining on an immobilized high-affinity ligand in the presence of ligand is measured using a quantitative real-time polymerase chain reaction (qPCR) method that detects the associated DNA label tagged to the BRD.
(§2) Inhibitor selectivity assays To assess target selectivity, compounds with highest biochemical and cellular activities can be profiled against panels of BRDs and kinases using the services of DiscoveRx and/or Reaction biology, as we have done previously.

BRD2(2) = molecular target: T5, BRD2(2) (Homo sapiens, UniProt P25440); assay: Bromoscan selectivity profiling (DiscoveRx); assay type: binding; details: at 20,000 nM
T5 construct: 32 bromodomains (by DiscoveRx); purchased DiscoveRx (BromoScan service)
Protocol: as §1, §2

BRD4(1) = molecular target: T6, BRD4(1) (Homo sapiens, UniProt O60885); assay: Bromoscan selectivity profiling (DiscoveRx); assay type: binding; details: at 20,000 nM
T6 construct: 32 bromodomains (by DiscoveRx); purchased DiscoveRx (BromoScan service)
Protocol: as §1, §2

BRD4(2) = molecular target: T7, BRD4(2) (Homo sapiens, UniProt O60885); assay: Bromoscan selectivity profiling (DiscoveRx); assay type: binding; details: at 20,000 nM
T7 construct: purchased DiscoveRx
Protocol: as §1, §2

BRD7 = molecular target: T8, BRD7 (Homo sapiens, UniProt Q9NPI1); assay: Bromoscan selectivity profiling (DiscoveRx); assay type: binding; details: at 20,000 nM
T8 construct: purchased DiscoveRx
Protocol: as §1, §2

BRDT(2) = molecular target: T9, BRDT(2) (Homo sapiens, UniProt Q58F21); assay: Bromoscan selectivity profiling (DiscoveRx); assay type: binding; details: at 20,000 nM
T9 construct: BRDT(2); purchased DiscoveRx
Protocol: as §1, §2

BRPF3 = molecular target: T10, BRPF3 (Homo sapiens, UniProt Q9ULD4); assay: Bromoscan selectivity profiling (DiscoveRx); assay type: binding; details: at 20,000 nM
T10 construct: purchased DiscoveRx
Protocol: as §1, §2

CECR2 = molecular target: T11, CECR2 (Homo sapiens, UniProt Q9BXF3); assay: Bromoscan selectivity profiling (DiscoveRx); assay type: binding; details: at 20,000 nM
T11 construct: purchased DiscoveRx
Protocol: as §1, §2

CREBBP = molecular target: T12, CREBBP (Homo sapiens, UniProt Q92793); assay: Bromoscan selectivity profiling (DiscoveRx); assay type: binding; details: at 20,000 nM
T12 construct: purchased DiscoveRx
Protocol: as §1, §2

EP300 = molecular target: T13, EP300 (Homo sapiens, UniProt Q09472); assay: Bromoscan selectivity profiling (DiscoveRx); assay type: binding; details: at 20,000 nM
T13 construct: purchased DiscoveRx
Protocol: as §1, §2

FALZ = molecular target: T14, FALZ (Homo sapiens, UniProt Q12830); assay: Bromoscan selectivity profiling (DiscoveRx); assay type: binding; details: at 20,000 nM
T14 construct: purchased DiscoveRx
Protocol: as §1, §2

GCN5L(2) = molecular target: T15, GCN5L(2) (Homo sapiens, UniProt Q92830); assay: Bromoscan selectivity profiling (DiscoveRx); assay type: binding; details: at 20,000 nM
T15 construct: purchased DiscoveRx
Protocol: as §1, §2

PBRM1(5) = molecular target: T16, PBRM1(5) (Homo sapiens, UniProt Q86U86); assay: Bromoscan selectivity profiling (DiscoveRx); assay type: binding; details: at 20,000 nM
T16 construct: PBRM1(5); purchased DiscoveRx
Protocol: as §1, §2

PCAF = molecular target: T17, PCAF (Homo sapiens, UniProt Q92831); assay: Bromoscan selectivity profiling (DiscoveRx); assay type: binding; details: at 20,000 nM
T17 construct: purchased DiscoveRx
Protocol: as §1, §2

SMARCA2 = molecular target: T18, SMARCA2 (Homo sapiens, UniProt P51531); assay: Bromoscan selectivity profiling (DiscoveRx); assay type: binding; details: at 20,000 nM
T18 construct: purchased DiscoveRx
Protocol: as §1, §2

SMARCA4 = molecular target: T19, SMARCA4 (Homo sapiens, UniProt P51532); assay: Bromoscan selectivity profiling (DiscoveRx); assay type: binding; details: at 20,000 nM
T19 construct: purchased DiscoveRx
Protocol: as §1, §2

TAF1(2) = molecular target: T20, TAF1(2) (Homo sapiens, UniProt P21675); assay: Bromoscan selectivity profiling (DiscoveRx); assay type: binding; details: at 20,000 nM
T20 construct: purchased DiscoveRx
Protocol: as §1, §2

TAF1L(2) = molecular target: T21, TAF1L(2) (Homo sapiens, UniProt Q8IZX4); assay: Bromoscan selectivity profiling (DiscoveRx); assay type: binding; details: at 20,000 nM
T21 construct: purchased DiscoveRx
Protocol: as §1, §2

TRIM24(PHD, Bromo.) = molecular target: T22, TRIM24(PHD, Bromo.) (Homo sapiens, UniProt O15164); assay: Bromoscan selectivity profiling (DiscoveRx); assay type: binding; details: at 20,000 nM
T22 construct: TRIM24(PHD, Bromo.); purchased DiscoveRx
Protocol: as §1, §2

WDR9(2) = molecular target: T23, WDR9(2) (Homo sapiens, UniProt Q9NSI6); assay: Bromoscan selectivity profiling (DiscoveRx); assay type: binding; details: at 20,000 nM
T23 construct: purchased DiscoveRx
Protocol: as §1, §2

TRIM33(PHD, Bromo.) = assay: Bromoscan selectivity profiling (DiscoveRx); assay type: binding, human; details: at 20,000 nM
Protocol: as §1, §2

[5] = Table 2 (Example 2), 100 μM compound, standard deviation from two experiments
[6] = Table 2 (Example 2), 100 μM compound, standard deviation from two experiments, 100 µM

T8 sequence (Q9NPI1 131-235 limits assumed): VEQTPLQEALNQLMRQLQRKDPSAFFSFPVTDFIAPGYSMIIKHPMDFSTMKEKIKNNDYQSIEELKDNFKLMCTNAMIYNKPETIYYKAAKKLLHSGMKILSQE
T13 sequence (Q09472 1049-1156 limits assumed): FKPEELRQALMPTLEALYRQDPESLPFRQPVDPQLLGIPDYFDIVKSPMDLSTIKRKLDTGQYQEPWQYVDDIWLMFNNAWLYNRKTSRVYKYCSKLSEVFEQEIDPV
T15 sequence (Q92830 728-832 limits assumed): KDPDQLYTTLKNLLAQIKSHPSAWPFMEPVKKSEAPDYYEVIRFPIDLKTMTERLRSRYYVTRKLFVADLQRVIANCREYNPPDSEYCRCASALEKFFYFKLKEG
T12 sequence (Q92793 1085-1192 limits assumed): as the sequence (Q09472 1049-1156 limits assumed) above, with S47N, I73V, Y93F, S98A counted along it
T16 sequence (Q86U86 653-763 limits assumed): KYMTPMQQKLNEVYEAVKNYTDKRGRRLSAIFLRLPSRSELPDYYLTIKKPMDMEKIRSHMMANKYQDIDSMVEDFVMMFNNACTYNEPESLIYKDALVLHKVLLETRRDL
T17 sequence (Q92831 723-827 limits assumed): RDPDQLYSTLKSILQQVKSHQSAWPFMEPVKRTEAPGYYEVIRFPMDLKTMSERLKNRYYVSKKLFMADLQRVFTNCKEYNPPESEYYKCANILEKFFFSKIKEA
T10 sequence (Q9ULD4 589-693 limits assumed): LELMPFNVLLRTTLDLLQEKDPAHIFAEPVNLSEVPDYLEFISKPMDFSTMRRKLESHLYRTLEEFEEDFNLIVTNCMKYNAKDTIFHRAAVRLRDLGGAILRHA
T18 sequence (P51531 1378-1506 limits assumed): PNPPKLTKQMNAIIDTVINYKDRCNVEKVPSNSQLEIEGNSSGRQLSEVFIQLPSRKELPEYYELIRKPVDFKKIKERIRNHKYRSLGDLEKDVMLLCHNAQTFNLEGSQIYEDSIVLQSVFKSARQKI
T19 sequence (P51532 1453-1564 limits assumed): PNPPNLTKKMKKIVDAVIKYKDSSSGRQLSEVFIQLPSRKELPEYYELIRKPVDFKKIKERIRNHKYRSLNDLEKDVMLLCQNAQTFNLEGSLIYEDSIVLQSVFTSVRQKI
T11 sequence (Q9BXF3 434-538 limits assumed): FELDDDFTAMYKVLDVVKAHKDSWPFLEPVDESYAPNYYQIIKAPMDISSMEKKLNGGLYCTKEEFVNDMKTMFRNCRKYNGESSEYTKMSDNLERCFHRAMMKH
T4 sequence (Q9UIF9 1793-1897 limits assumed): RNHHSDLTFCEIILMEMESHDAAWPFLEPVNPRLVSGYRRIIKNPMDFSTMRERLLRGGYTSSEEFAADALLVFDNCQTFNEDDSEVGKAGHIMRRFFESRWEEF
T5 sequence (P25440 344-453 limits assumed): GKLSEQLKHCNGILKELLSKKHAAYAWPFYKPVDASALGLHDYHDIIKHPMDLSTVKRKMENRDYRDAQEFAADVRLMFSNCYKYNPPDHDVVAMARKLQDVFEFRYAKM
T22 sequence (O15164 824-1006 limits assumed): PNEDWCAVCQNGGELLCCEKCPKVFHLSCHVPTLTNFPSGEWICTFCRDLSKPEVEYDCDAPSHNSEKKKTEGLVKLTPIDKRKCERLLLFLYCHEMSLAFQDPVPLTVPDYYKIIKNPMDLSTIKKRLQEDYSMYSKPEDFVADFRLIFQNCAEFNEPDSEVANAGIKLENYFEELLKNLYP
T21 sequence (Q8IZX4 1517-1626 limits assumed): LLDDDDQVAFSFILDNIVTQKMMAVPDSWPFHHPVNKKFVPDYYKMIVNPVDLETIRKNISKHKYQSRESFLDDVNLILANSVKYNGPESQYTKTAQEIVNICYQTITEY
T23 sequence (Q9NSI6 1313-1418 limits assumed): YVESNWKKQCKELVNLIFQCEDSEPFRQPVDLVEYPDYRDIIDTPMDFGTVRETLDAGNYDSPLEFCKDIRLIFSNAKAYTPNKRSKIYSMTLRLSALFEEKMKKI

DSF (ΔTm, ° C.) TAF1-T ([1]; Table 1 (Example 1)): 5.8 ± 0.5 °C
ΔTm at 100 µM [1, 5]: 3.1 °C
DSF (ΔTm, ° C.) TAF1-T [1, 6]: 3.2 ± 0.1 °C
DSF (ΔTm, ° C.) TAF1-2 (TAF1-2 (TAF1 BD2) [2]; Table 1 (Example 1)): 2.9 ± 0.2 °C
ΔTm at 100 µM (TAF1-2 (TAF1 BD2) [2]; [5]): 3.2 °C
DSF (ΔTm, ° C.) TAF1-2 (TAF1-2 (TAF1 BD2) [2]; [6]): 3.1 ± 0.1 °C
ITC N (stoichiometry), TAF1-T [3]: 1.11
ITC TΔS, TAF1-T [3]: 2.26 kcal/mol
ITC ΔH, TAF1-T [3]: -5.82 kcal/mol
ITC N (stoichiometry), TAF1-2 (TAF1-2 (TAF1 BD2) [4]): 0.99
ITC TΔS, TAF1-2 (TAF1-2 (TAF1 BD2) [4]): 3.26 kcal/mol
ITC ΔH, TAF1-2 (TAF1-2 (TAF1 BD2) [4]): -4.36 kcal/mol
inhibition at 20 µM (BAZ2A): 0%
inhibition at 20 µM (BRD2(2)): 84%
inhibition at 20 µM (BRD4(1)): 50%
inhibition at 20 µM (BRD4(2)): 69%
inhibition at 20 µM (BRD7): 14%
inhibition at 20 µM (BRDT(2)): 38%
inhibition at 20 µM (BRPF3): 20%
inhibition at 20 µM (CECR2): 92.3%
inhibition at 20 µM (CREBBP): 20%
inhibition at 20 µM (EP300): 36%
inhibition at 20 µM (FALZ): 11%
inhibition at 20 µM (GCN5L(2)): 27%
inhibition at 20 µM (PBRM1(5)): 0%
inhibition at 20 µM (PCAF): 18%
inhibition at 20 µM (SMARCA2): 15%
inhibition at 20 µM (SMARCA4): 7%
inhibition at 20 µM (TAF1(2)): 99.8%
inhibition at 20 µM (TAF1L(2)): 98%
inhibition at 20 µM (TRIM24(PHD, Bromo.)): 6%
inhibition at 20 µM (WDR9(2)): 84%
Compound: C[C@@H]1COCCN1c1cc(C2([S@](C)(=N)=O)CC2)nc(-c2cc[nH]c3nccc2-3)n1 [AZD6738]
Interaction with BRD2-2, BRD3-2, BRD4-2, CECR2 and WDR9-2 (panel of 32 bromodomains): interacted weakly; also recorded: weakly interacted
p53 and p21 levels (A549 lung cancer cells; A549, 10 μM, 24 h, western blot): modest increase
MDMX levels (A549 lung cancer cells; A549, western blot): modest effect
% Inhibition TRIM33(PHD, Bromo.) (TRIM33(PHD, Bromo.)): 0%
